Our source for the DC50 and IC50 values is patent publication US20260295053A1, “COMPOUNDS FOR DEGRADATION AND INHIBITION OF KRAS (G12D) PROTEIN” (Shenzhen Ionova Life Science Co., Ltd., priority 2023, published 2026).

Where only a bound is given, the exact number is not on record here.

One experiment deals with T1, KRAS (G12D) (Homo sapiens, UniProt P01116, G12D).
T1 construct: in-cell western with KRAS G12D antibody after 24 h
The experiment in a line: KRAS (G12D) cellular degradation assay in AsPC-1 cells. It is filed as cell-based. The settings on record: 24 hours, antibody fluorescence (Odyssey CLX), DC50 half-maximal degradation concentration. In short, it runs like this: (§1)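 Half-maximal degradation (DC50) and inhibition (IC50) concentrations are fitted from dose-response curves spanning […] to 1.5 nM final. KRAS G12D loss is measured by fluorescent antibody staining with β-actin reference after 24 h; growth is measured by ATP luminescence after a 6-day exposure.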

The test system of the next experiment is AsPC-1 cells. The experiment in a line: AsPC-1 cell proliferation assay (CellTiter Glo). The settings on record: Homo sapiens, ASPC1, 144 h, 6 days. The format is cell-based. In short, it runs like this: as §1

T1 sequence (P01116 1-188 isoform P01116-2 G12D): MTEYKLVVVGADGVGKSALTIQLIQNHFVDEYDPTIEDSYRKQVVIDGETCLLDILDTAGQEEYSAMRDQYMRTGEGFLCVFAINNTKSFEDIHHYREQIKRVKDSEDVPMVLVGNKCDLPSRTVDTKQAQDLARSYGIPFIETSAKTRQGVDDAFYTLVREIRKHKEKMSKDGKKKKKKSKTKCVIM

For `Cc1ncsc1C#C[C@H](CO)NC(=O)[C@@H]1C[C@@H](O)CN1C(=O)[C@H](C(C)C)n1cc(-c2ccc(COc3c(-c4c(C)c(F)cc5[nH]ncc45)c(C4CC4)cc4c(N5C[C@@H]6C[C@H]5CN6)nc(OC5CCOCC5)nc34)cc2)nn1` [Example 59, (2S,4R)-1-((2S)-2-(4-(4-(((4-((1S,4S)-2,5-diazabicyclo[2.2.1]heptan-2-yl)-6-cyclopropyl-7-(6-fluoro-5-methyl-1H-indazol-4-yl)-2-((tetrahydro-2H-pyran-4-yl)oxy)quinazolin-8-yl)oxy)methyl)phenyl)-1H-1,2,3-triazol-1-yl)-3-methylbutanoyl)-4-hydroxy-N—((R)-1-hydroxy-4-(4-methylthiazol-5-yl)but-3-yn-2-yl)pyrrolidine-2-carboxamide], the DC50 (commonly the concentration giving 50% degradation) at KRAS (G12D) is under 10 nM. Further, the IC50 (usually the point on the concentration scale where inhibition reaches its midpoint) with AsPC-1 cells is under 10 nM.

As for `CO[C@@H](C)COc1nc(N2C[C@@H]3C[C@H]2CN3)c2cc(C3CC3)c(-c3c(C)c(F)cc4[nH]ncc34)c(OCc3ccc(-c4cn([C@H](C(=O)N5C[C@H](O)C[C@H]5C(=O)N[C@H](C#Cc5cccc(F)c5F)CO)C(C)C)nn4)cc3)c2n1` [Example 60, (2S,4R)-1-((2S)-2-(4-(4-(((4-((1S,4S)-2,5-diazabicyclo[2.2.1]heptan-2-yl)-6-cyclopropyl-7-(6-fluoro-5-methyl-1H-indazol-4-yl)-2-((S)-2-methoxypropoxy)quinazolin-8-yl)oxy)methyl)phenyl)-1H-1,2,3-triazol-1-yl)-3-methylbutanoyl)-N—((R)-4-(2,3-difluorophenyl)-1-hydroxybut-3-yn-2-yl)-4-hydroxypyrrolidine-2-carboxamide], the 50% degradation concentration (DC50) at KRAS (G12D) was under 10 nM. The same compound had an IC50 with AsPC-1 cells of under 10 nM.

With `CCn1nccc1-c1ccc([C@H](CO)NC(=O)[C@@H]2C[C@@H](O)CN2C(=O)[C@H](C(C)C)n2cc(-c3ccc(COc4c(-c5c(C)c(F)cc6[nH]ncc56)c(C5CC5)cc5c(N6C7CNCC6COC7)nc(OC[C@H](C)OC)nc45)cc3)nn2)cc1` [Example 61, (2S,4R)-1-((2S)-2-(4-(4-(((4-(3-oxa-7,9-diazabicyclo[3.3.1]nonan-9-yl)-6-cyclopropyl-7-(6-fluoro-5-methyl-1H-indazol-4-yl)-2-((S)-2-methoxypropoxy)quinazolin-8-yl)oxy)methyl)phenyl)-1H-1,2,3-triazol-1-yl)-3-methylbutanoyl)-N—((R)-1-(4-(1-ethyl-1H-pyrazol-5-yl)phenyl)-2-hydroxyethyl)-4-hydroxypyrrolidine-2-carboxamide], the DC50 at KRAS (G12D) lay within 10 to 100 nM. In the experiment on AsPC-1 cells, the IC50 lay within 10 to 100 nM.

As for `CCn1nccc1-c1ccc([C@H](CO)NC(=O)[C@@H]2C[C@@H](O)CN2C(=O)[C@H](C(C)C)n2cc(-c3ccc(COc4c(-c5c(C)c(F)cc6[nH]ncc56)c(C5CC5)cc5c(N6C[C@@H]7C[C@H]6CN7)nc(OCC6(CC(F)F)CC6)nc45)cc3)nn2)cc1` [Example 62, (2S,4R)-1-((2S)-2-(4-(4-(((4-((1S,4S)-2,5-diazabicyclo[2.2.1]heptan-2-yl)-6-cyclopropyl-2-((1-(2,2-difluoroethyl)cyclopropyl)methoxy)-7-(6-fluoro-5-methyl-1H-indazol-4-yl)quinazolin-8-yl)oxy)methyl)phenyl)-1H-1,2,3-triazol-1-yl)-3-methylbutanoyl)-N—((R)-1-(4-(1-ethyl-1H-pyrazol-5-yl)phenyl)-2-hydroxyethyl)-4-hydroxypyrrolidine-2-carboxamide], the 50% degradation concentration (DC50) on KRAS (G12D) was under 10 nM. The IC50 with AsPC-1 cells is under 10 nM.
